Results reported in the supplement of paper PMC10307832.

Columns and labels:
Test in all cases: relative viability (nuclei count vs DMSO), 5 days (fraction); higher = more cells survive
AZ505 + Palbociclib = compound: C1CCC(CC1)N(CCNCCC2=C3C(=C(C=C2)O)NC(=O)CO3)C(=O)CCNCCC4=CC(=C(C=C4)Cl)Cl [AZ505] + CC(=O)c1c(C)c2cnc(Nc3ccc(N4CCNCC4)cn3)nc2n(C2CCCC2)c1=O [Palbociclib] (partner 0.5 µM)
Outline: (§1)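 Medians of duplicate plates are given as relative viability. That measure is the nuclei count in treated wells divided by the count in vehicle wells. Counts were taken on 4× images of lung cancer cell lines in 1536-well plates, 5 days after pin-tool dosing the day after seeding with one drug alone or a fixed anchor-drug dose plus five library-drug doses (not always all listed) in √10 steps.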

AZ505 + Navitoclax = compound: C1CCC(CC1)N(CCNCCC2=C3C(=C(C=C2)O)NC(=O)CO3)C(=O)CCNCCC4=CC(=C(C=C4)Cl)Cl [AZ505] + CC1(C)CCC(c2ccc(Cl)cc2)=C(CN2CCN(c3ccc(C(=O)NS(=O)(=O)c4ccc(N[C@H](CCN5CCOCC5)CSc5ccccc5)c(S(=O)(=O)C(F)(F)F)c4)cc3)CC2)C1 [Navitoclax] (partner 0.5 µM)
Outline: as §1

AZ505 + Trametinib = compound: C1CCC(CC1)N(CCNCCC2=C3C(=C(C=C2)O)NC(=O)CO3)C(=O)CCNCCC4=CC(=C(C=C4)Cl)Cl [AZ505] + CC(=O)Nc1cccc(-n2c(=O)n(C3CC3)c(=O)c3c(Nc4ccc(I)cc4F)n(C)c(=O)c(C)c32)c1 [Trametinib] (partner 0.02 µM)
Outline: as §1

AZ505 + Linsitinib = compound: C1CCC(CC1)N(CCNCCC2=C3C(=C(C=C2)O)NC(=O)CO3)C(=O)CCNCCC4=CC(=C(C=C4)Cl)Cl [AZ505] + C[C@]1(O)C[C@@H](c2nc(-c3ccc4ccc(-c5ccccc5)nc4c3)c3c(N)nccn32)C1 [Linsitinib] (partner 1 µM)
Outline: as §1

Row | Cell Line | relative viability (AZ505 + Palbociclib; first compound 0.08 µM) | relative viability (AZ505 + Palbociclib; first compound 0.253 µM) | relative viability (AZ505 + Palbociclib; first compound 0.8 µM) | relative viability (AZ505 + Palbociclib; first compound 2.53 µM) | relative viability (AZ505 + Palbociclib; first compound 8 µM) | relative viability (AZ505 + Navitoclax; first compound 0.08 µM) | relative viability (AZ505 + Navitoclax; first compound 0.8 µM) | relative viability (AZ505 + Navitoclax; first compound 2.53 µM) | relative viability (AZ505 + Navitoclax; first compound 8 µM) | relative viability (AZ505 + Trametinib; first compound 0.08 µM) | relative viability (AZ505 + Trametinib; first compound 0.253 µM) | relative viability (AZ505 + Trametinib; first compound 0.8 µM) | relative viability (AZ505 + Trametinib; first compound 2.53 µM) | relative viability (AZ505 + Trametinib; first compound 8 µM) | relative viability (AZ505 + Linsitinib; first compound 0.08 µM) | relative viability (AZ505 + Linsitinib; first compound 0.8 µM) | relative viability (AZ505 + Linsitinib; first compound 2.53 µM) | relative viability (AZ505 + Linsitinib; first compound 8 µM) | relative viability (AZ505 + Navitoclax; first compound 0.253 µM) | relative viability (AZ505 + Linsitinib; first compound 0.253 µM)
1 | NCI-H23 | 0.465 | 0.522 | 0.505 | 0.533 | 0.485 | 0.71 | 0.849 | 0.819 | 0.694 | 0.246 | 0.414 | 0.427 | 0.442 | 0.347 | 0.561 | 0.651 | 0.554 | 0.545 | – | –
2 | LOU-NH91 | 0.55 | 0.534 | 0.551 | 0.562 | 0.536 | 0.612 | 0.657 | 0.657 | 0.804 | 0.772 | 0.77 | 0.76 | 0.798 | 0.765 | 0.838 | 0.857 | 0.915 | 0.962 | 0.694 | 0.92
3 | NCI-H2085 | 0.451 | 0.469 | 0.459 | 0.477 | 0.446 | 1.08 | 1.04 | 1.06 | 1.2 | 0.49 | 0.477 | 0.52 | 0.571 | 0.591 | 0.817 | 0.93 | 0.918 | 0.968 | 1.12 | 0.923
4 | COR-L23 | 0.259 | 0.253 | 0.264 | 0.284 | 0.281 | 0.893 | 0.877 | 0.833 | 0.928 | 0.45 | 0.516 | 0.519 | 0.534 | 0.482 | 0.684 | 0.749 | 0.855 | 0.692 | 1.01 | 0.772
5 | BEN | 0.458 | 0.457 | 0.442 | 0.48 | 0.498 | 0.078 | 0.0775 | 0.0686 | 0.0829 | 0.971 | 1.08 | 0.972 | 1 | 1.08 | 0.735 | 0.904 | 0.891 | 1.12 | 0.0642 | 1.1
6 | LK-2 | 0.487 | 0.73 | 0.768 | 0.792 | 0.898 | 0.825 | 0.805 | 0.934 | 0.842 | 0.661 | 0.687 | 0.718 | 0.865 | 0.865 | 0.408 | 0.578 | 0.427 | 0.812 | 0.952 | 0.703
7 | NCI-H322M | 0.53 | – | 0.473 | 0.489 | 0.503 | 1.18 | 1.16 | 1.1 | 1.28 | 0.501 | – | 0.521 | 0.491 | 0.486 | 0.895 | 0.983 | 0.981 | 0.95 | 1.1 | 0.863
8 | NCI-H520 | 0.229 | 0.235 | 0.201 | 0.263 | 0.237 | 1.05 | 1.12 | 1.22 | 1.07 | 0.766 | 0.638 | 0.661 | 0.639 | 0.699 | 0.911 | 0.85 | 1.04 | 0.955 | 1.23 | 1.1
9 | NCI-H1666 | 0.625 | 0.648 | 0.621 | 0.72 | 0.601 | 0.969 | 0.99 | 0.896 | 0.894 | 0.878 | 0.873 | 0.83 | 0.838 | 0.781 | 0.835 | 0.849 | 0.726 | 0.941 | 1.06 | 0.718
10 | NCI-H1993 | 0.599 | 0.705 | 0.621 | 0.583 | 0.713 | 0.859 | 0.86 | 1.01 | 0.917 | 0.463 | 0.533 | 0.45 | 0.575 | 0.469 | 0.677 | 0.728 | 0.91 | 0.7 | 0.911 | 0.654
11 | NCI-H1975 | 0.531 | 0.473 | 0.505 | 0.621 | 0.564 | 1.02 | 1.05 | 1.03 | 1.13 | 0.351 | 0.315 | 0.377 | 0.356 | 0.332 | 0.907 | 0.783 | 0.919 | 0.955 | 0.99 | 0.923
12 | HCC-44 | 0.966 | 1.03 | 0.945 | 0.976 | 0.91 | 1 | 0.927 | 1.01 | 0.939 | 1.03 | 1.09 | 1.02 | 1.05 | 1.1 | 0.671 | 0.619 | 0.654 | 0.663 | 0.963 | 0.691
